Here are results for 10 compounds from ChEMBL document CHEMBL4840317, “Saccharochelins A-H, Cytotoxic Amphiphilic Siderophores from the Rare Marine Actinomycete Saccharothrix sp. D09” (J Nat Prod, 2021).

Activity calls are given as the source filed them. No cut-off for these calls is given here. Where only a bound is given, the exact number is not on record here.

For assay [1], the system named is HCT-116. The assay is described as follows: Cytotoxicity against human HCT-116 cells assessed as reduction in cell viability by MTT assay. The assay is classed as functional, cell-based. On the technique in general: Tetrazolium dyes change colour on reduction, which living cells bring about.
Assay [2] relates to MCF7. Briefly: Cytotoxicity against human MCF7 cells assessed as reduction in cell viability by MTT assay. It counts as functional, cell-based.
The target in assay [3] is Angiotensin-converting enzyme 2 (Homo sapiens) (UniProt Q9BYF1). The assay is described as follows: Inhibition of ACE2 (unknown origin) upto 100 ug/ml incubated for 15 mins followed by substrate addition by fluorescence based analysis. The settings on record: dose microg/ml <=100, time 15.0 min.
Sequence of Angiotensin-converting enzyme 2 (Homo sapiens) (Q9BYF1 18-805 limits assumed): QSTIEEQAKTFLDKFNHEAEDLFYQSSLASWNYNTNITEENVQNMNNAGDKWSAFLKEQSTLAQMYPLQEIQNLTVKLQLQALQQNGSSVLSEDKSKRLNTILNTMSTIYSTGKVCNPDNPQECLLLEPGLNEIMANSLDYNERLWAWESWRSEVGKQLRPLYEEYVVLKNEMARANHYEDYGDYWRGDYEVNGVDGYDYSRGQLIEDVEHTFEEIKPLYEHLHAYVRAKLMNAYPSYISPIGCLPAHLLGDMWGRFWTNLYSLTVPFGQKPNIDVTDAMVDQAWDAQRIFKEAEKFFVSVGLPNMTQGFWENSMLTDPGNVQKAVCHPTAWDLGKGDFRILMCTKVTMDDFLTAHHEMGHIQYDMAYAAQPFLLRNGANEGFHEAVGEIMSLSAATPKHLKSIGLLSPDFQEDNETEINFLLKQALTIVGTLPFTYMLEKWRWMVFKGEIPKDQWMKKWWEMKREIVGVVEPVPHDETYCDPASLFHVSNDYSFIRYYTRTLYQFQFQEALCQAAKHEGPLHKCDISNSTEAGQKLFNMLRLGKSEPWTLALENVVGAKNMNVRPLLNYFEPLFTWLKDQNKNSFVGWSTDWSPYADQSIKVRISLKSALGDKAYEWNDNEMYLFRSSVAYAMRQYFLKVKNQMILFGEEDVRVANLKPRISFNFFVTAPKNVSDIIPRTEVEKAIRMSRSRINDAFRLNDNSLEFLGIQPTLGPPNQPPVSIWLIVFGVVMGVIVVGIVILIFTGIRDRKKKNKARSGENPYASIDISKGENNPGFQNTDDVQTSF
Assay [4] has as its system A549. Briefly: Cytotoxicity against human A549 cells assessed as reduction in cell viability by MTT assay. The assay is classed as functional, cell-based.
For assay [5], the system named is HepG2. Briefly: Cytotoxicity against human HepG2 cells assessed as reduction in cell viability by MTT assay. The assay is classed as functional, cell-based.
Assay [6] deals with Pseudomonas aeruginosa. The assay is described as follows: Antibacterial activity against Pseudomonas aeruginosa ATCC 27853 assessed as inhibition of bacterial growth incubated for 18 hrs by Kirby-Bauer disk diffusion method. It counts as functional. (In agar diffusion tests the substance spreads into inoculated agar from a disc or well.)
For assay [7], the system named is Escherichia coli. The assay is described as follows: Antibacterial activity against Escherichia coli ATCC 35218 assessed as inhibition of bacterial growth incubated for 18 hrs by Kirby-Bauer disk diffusion method. The assay is classed as functional.
Assay [8] concerns Bacillus subtilis. The assay is described as follows: Antibacterial activity against Bacillus subtilis ATCC 6633 assessed as inhibition of bacterial growth incubated for 18 hrs by Kirby-Bauer disk diffusion method. It counts as functional.
For assay [9], the system named is Staphylococcus aureus. Briefly: Antibacterial activity against Staphylococcus aureus ATCC 29213 assessed as inhibition of bacterial growth incubated for 18 hrs by Kirby-Bauer disk diffusion method. The assay is classed as functional.
A short description of assay [10]: Binding affinity to Fe3+ assessed as formation of Fe3+-compound complex at 5 to 640 uM in presence of FeCl3 incubated for 3 hrs by Chrome Azurol S assay. The settings on record: dose 5-640 µM.
The nature of assay [11]: Binding affinity to Fe3+ assessed as formation of Fe3+-compound complex coordinate ratio of 1:1 measured under neutral pH by UV-visible spectrophotometric titration analysis.

Take `CCCCCCCCCCCCCCC(=O)N[C@@H](CCCN(O)C=O)C(=O)N[C@@H](CO)C(=O)N(O)CCC[C@@H]1NC(=O)[C@H](CCCN(O)C=O)NC1=O`: the IC50 (in general, the concentration at which inhibition is half-maximal) in assay [1] was determined as 4.8 µM; in assay [2], 5.9 µM; in assay [4], 3.3 µM; in [5], 4.3 µM. Besides, the inhibition result in [3] is “inactive”. The MIC in assay [6], in assay [7], in assay [8] and in assay [9] was more than 100 µM in each case.
Turning to `CCCCCCCCCCCCCC(=O)N[C@@H](CCCN(O)C=O)C(=O)N[C@@H](CO)C(=O)N(O)CCC[C@@H]1NC(=O)[C@H](CCCN(O)C=O)NC1=O`, the IC50 in assay [1], in assay [2], in assay [4] and in [5] was more than 20 µM in each case. The inhibition result in assay [3] is “inactive”. The MIC in assay [6], in assay [7], in assay [8] and in assay [9] was more than 100 µM each time.
On to `CC(C)CCCCCCCCCC(=O)N[C@@H](CCCN(O)C=O)C(=O)N[C@@H](CO)C(=O)N(O)CCC[C@@H]1NC(=O)[C@H](CCCN(O)C=O)NC1=O`, for which the IC50 in assay [1] is more than 20 µM; in assay [2], more than 20 µM; in assay [4], more than 20 µM; in assay [5] it was 7.7 µM. For the same compound, the outcome in assay [10] and in assay [11] was Active. Besides, the inhibition entry in assay [3] is “inactive”. Also, the MIC in assay [6], in [7], in assay [8] and in assay [9] was more than 100 µM throughout.
Consider `CC(C)CCCCCCCCCCCC(=O)N[C@@H](CCCN(O)C=O)C(=O)N[C@@H](CO)C(=O)N(O)CCC[C@@H]1NC(=O)[C@H](CCCN(O)C=O)NC1=O`, for which the IC50 was more than 20 µM in [1], more than 20 µM in [2], 8.1 µM in assay [4] and 2.3 µM in assay [5]. Moreover, the result in [10] was Active. Besides, the inhibition entry in [3] was “inactive”. For the same compound, the MIC in assay [6], in [7], in assay [8] and in assay [9] was more than 100 µM in each case.
On to `CCCCCCCCCCCCC(=O)N[C@@H](CCCN(O)C=O)C(=O)N[C@@H](CO)C(=O)N(O)CCC[C@@H]1NC(=O)[C@H](CCCN(O)C=O)NC1=O`, for which the IC50 was 10 µM in assay [1], more than 20 µM in assay [2], 3.4 µM in assay [4] and 10 µM in assay [5]. In addition, in assay [10], the result was Active. Moreover, the inhibition entry in assay [3] was “inactive”. The MIC in assay [6], in assay [7], in assay [8] and in assay [9] was more than 100 µM throughout.
With `CC(C)CCCCCCCCCCC(=O)N[C@@H](CCCN(O)C=O)C(=O)N[C@@H](CO)C(=O)N(O)CCC[C@@H]1NC(=O)[C@H](CCCN(O)C=O)NC1=O`, the IC50 is more than 20 µM in [1], more than 20 µM in assay [2], 14 µM in assay [4] and more than 20 µM in assay [5]. Also, the result in assay [10] was Active. Moreover, in assay [3], the inhibition result is “inactive”. The minimum inhibitory concentration (MIC) in assay [6], in [7], in [8] and in assay [9] was more than 100 µM each time.
`CCCCCCCCCCCC(=O)N[C@@H](CCCN(O)C=O)C(=O)N[C@@H](CO)C(=O)N(O)CCC[C@@H]1NC(=O)[C@H](CCCN(O)C=O)NC1=O`: the IC50 in [1] was 11 µM; in assay [2], 17 µM; in assay [4], 11 µM; in assay [5], more than 20 µM. Besides, the result in assay [10] was Active. Further, the inhibition entry in assay [3] is “inactive”. For the same compound, the MIC in assay [6], in assay [7], in assay [8] and in assay [9] was more than 100 µM each time.
`CC(C)CCCCCCCCC(=O)N[C@@H](CCCN(O)C=O)C(=O)N[C@@H](CO)C(=O)N(O)CCC[C@@H]1NC(=O)[C@H](CCCN(O)C=O)NC1=O`: the IC50 is 9.7 µM in assay [1], more than 20 µM in assay [2], 13 µM in assay [4] and more than 20 µM in [5]. Further, the inhibition entry in assay [3] is “inactive”. Also, the MIC in [6], in [7], in [8] and in assay [9] was more than 100 µM each time.
In the case of `COc1cccc2c1C(=O)c1c(O)c3c(c(O)c1C2=O)C[C@@](O)(C(=O)CO)C[C@@H]3O[C@H]1C[C@H](N)[C@H](O)[C@H](C)O1` [DOXORUBICIN], the IC50 in assay [1] stood at 1.1 µM; in [4], 0.9 µM; in [5] it was 1.3 µM.
In the case of `CC(=O)N(O)CCCCCNC(=O)CCC(=O)N(O)CCCCCNC(=O)CCC(=O)N(O)CCCCCN`, in [10], the outcome was Active.
